# From patent US20070093969A1, “Molecular nephrotoxicology modeling” (priority 2002, published 2007)
# How the values were obtained:
# [1] = test system: patients; conditions: human, in vivo; cited from earlier work
# [2] = test system: kidney tissue; conditions: in vivo; cited from earlier work
# [3] = test system: kidney tissue gene expression; conditions: rat, in vivo
# [4] = test system: mouse; conditions: in vivo; cited from earlier work
# [5] = test system: rats; conditions: cited from earlier work
# [6] = test system: renal GST-alpha subunit, cytochrome P4502E1; conditions: rat, in vivo; cited from earlier work
# [7] = test system: rats; conditions: rat, in vivo; cited from earlier work
# [8] = test system: rats; conditions: rat, in vivo; cited from earlier work; remark: listed apart in the source
smiles,measurement,setting,value
"Nc1ccn(C[C@@H](CO)OCP(=O)(O)O)c(=O)n1 [cidofovir, Cidofovir]",patients with dose-dependent asymptomatic proteinuria,[1],Approximately 40%
same,patients with elevated serum creatinine levels,[1],25%
"O=C(O)Cc1ccccc1Nc1c(Cl)cccc1Cl [diclofenac, Diclofenac]","levels of BUN, malondialdehyde (MDA), SOD, and activated Ca2+-Mg2+-endonuclease",[2],elevated
same,"Tox Group Mean, GLGC Identifier 67",[3],1551.30
same,"Tox Group Mean, GLGC Identifier 665",[3],849.30
same,"Tox Group Mean, GLGC Identifier 725",[3],33.60
same,"Tox Group Mean, GLGC Identifier 1422",[3],174.39
same,"Tox Group Mean, GLGC Identifier 1527",[3],51.23
same,"Tox Group Mean, GLGC Identifier 1529",[3],194.31
same,"Tox Group Mean, GLGC Identifier 1698",[3],190.91
same,"Tox Group Mean, GLGC Identifier 1729",[3],81.89
same,"Tox Group Mean, GLGC Identifier 1847",[3],22.26
same,"Tox Group Mean, GLGC Identifier 1858",[3],253.42
same,"Tox Group Mean, GLGC Identifier 1888",[3],101.45
same,"Tox Group Mean, GLGC Identifier 1894",[3],294.35
same,"Tox Group Mean, GLGC Identifier 2128",[3],97.35
same,"Tox Group Mean, GLGC Identifier 3172",[3],36.28
same,"Tox Group Mean, GLGC Identifier 3439",[3],135.79
same,"Tox Group Mean, GLGC Identifier 3465",[3],152.39
same,"Tox Group Mean, GLGC Identifier 4449",[3],156.15
same,"Tox Group Mean, GLGC Identifier 4661",[3],555.94
same,"Tox Group Mean, GLGC Identifier 5461",[3],694.84
same,"Tox Group Mean, GLGC Identifier 5920",[3],1412.80
same,"Tox Group Mean, GLGC Identifier 5930",[3],73.85
same,"Tox Group Mean, GLGC Identifier 6014",[3],183.73
same,"Tox Group Mean, GLGC Identifier 6046",[3],83.37
same,"Tox Group Mean, GLGC Identifier 6278",[3],58.48
same,"Tox Group Mean, GLGC Identifier 6758",[3],59.84
same,"Tox Group Mean, GLGC Identifier 6782",[3],310.65
same,"Tox Group Mean, GLGC Identifier 6796",[3],304.75
same,"Tox Group Mean, GLGC Identifier 6917",[3],111.53
same,"Tox Group Mean, GLGC Identifier 7299",[3],595.57
same,"Tox Group Mean, GLGC Identifier 7540",[3],504.78
same,"Tox Group Mean, GLGC Identifier 7872",[3],63.92
same,"Tox Group Mean, GLGC Identifier 7936",[3],82.66
same,"Tox Group Mean, GLGC Identifier 7937",[3],34.46
same,"Tox Group Mean, GLGC Identifier 8065",[3],236.57
same,"Tox Group Mean, GLGC Identifier 8099",[3],72.23
same,"Tox Group Mean, GLGC Identifier 8104",[3],85.37
same,"Tox Group Mean, GLGC Identifier 8234",[3],22.24
same,"Tox Group Mean, GLGC Identifier 8759",[3],237.31
same,"Tox Group Mean, GLGC Identifier 8820",[3],743.55
same,"Tox Group Mean, GLGC Identifier 8850",[3],175.34
same,"Tox Group Mean, GLGC Identifier 8888",[3],22.26
same,"Tox Group Mean, GLGC Identifier 9079",[3],1099.28
same,"Tox Group Mean, GLGC Identifier 9520",[3],69.60
same,"Tox Group Mean, GLGC Identifier 10434",[3],77.07
same,"Tox Group Mean, GLGC Identifier 11434",[3],181.39
same,"Tox Group Mean, GLGC Identifier 11755",[3],343.83
same,"Tox Group Mean, GLGC Identifier 12979",[3],742.50
same,"Tox Group Mean, GLGC Identifier 13013",[3],32.49
same,"Tox Group Mean, GLGC Identifier 13485",[3],38.32
same,"Tox Group Mean, GLGC Identifier 13542",[3],321.75
same,"Tox Group Mean, GLGC Identifier 13614",[3],497.29
same,"Tox Group Mean, GLGC Identifier 13966",[3],227.19
same,"Tox Group Mean, GLGC Identifier 14003",[3],1575.92
same,"Tox Group Mean, GLGC Identifier 14346",[3],174.62
same,"Tox Group Mean, GLGC Identifier 14450",[3],45.80
same,"Tox Group Mean, GLGC Identifier 15017",[3],2241.27
same,"Tox Group Mean, GLGC Identifier 15035",[3],23.84
same,"Tox Group Mean, GLGC Identifier 15124",[3],1897.22
same,"Tox Group Mean, GLGC Identifier 15125",[3],3102.06
same,"Tox Group Mean, GLGC Identifier 15379",[3],33.32
same,"Tox Group Mean, GLGC Identifier 15411",[3],552.53
same,"Tox Group Mean, GLGC Identifier 15679",[3],309.12
same,"Tox Group Mean, GLGC Identifier 15761",[3],22.22
same,"Tox Group Mean, GLGC Identifier 15964",[3],487.88
same,"Tox Group Mean, GLGC Identifier 16520",[3],174.46
same,"Tox Group Mean, GLGC Identifier 16521",[3],453.74
same,"Tox Group Mean, GLGC Identifier 16681",[3],134.46
same,"Tox Group Mean, GLGC Identifier 16982",[3],1036.49
same,"Tox Group Mean, GLGC Identifier 17541",[3],1839.84
same,"Tox Group Mean, GLGC Identifier 18246",[3],100.99
same,"Tox Group Mean, GLGC Identifier 19067",[3],76.83
same,"Tox Group Mean, GLGC Identifier 20000",[3],24.08
same,"Tox Group Mean, GLGC Identifier 20457",[3],235.87
same,"Tox Group Mean, GLGC Identifier 20523",[3],1004.68
same,"Tox Group Mean, GLGC Identifier 20864",[3],3112.64
same,"Tox Group Mean, GLGC Identifier 21012",[3],445.05
same,"Tox Group Mean, GLGC Identifier 21014",[3],352.43
same,"Tox Group Mean, GLGC Identifier 21145",[3],76.23
same,"Tox Group Mean, GLGC Identifier 21354",[3],640.85
same,"Tox Group Mean, GLGC Identifier 21491",[3],67.51
same,"Tox Group Mean, GLGC Identifier 22311",[3],1255.02
same,"Tox Group Mean, GLGC Identifier 22321",[3],138.89
same,"Tox Group Mean, GLGC Identifier 23987",[3],596.80
same,"Tox Group Mean, GLGC Identifier 24232",[3],48.69
same,"Tox Group Mean, GLGC Identifier 24566",[3],32.95
same,"Tox Group Mean, GLGC Identifier 24568",[3],78.30
same,"Tox Group Mean, GLGC Identifier 24893",[3],20.58
same,"Tox Group Mean, GLGC Identifier 25106",[3],28.05
same,"Tox Group Mean, GLGC Identifier 26083",[3],403.60
"NNc1nncc2ccccc12 [hydralazine, Hydralazine]",kidney copper concentrations,[5]; compared to control groups,increased
same,manganese and zinc concentrations,"[5]; rat, in vivo",not effected
same,renal GST-alpha subunit expression,[6],increase
same,renal cytochrome P4502E1 expression,[6],did not alter
"N=C(N)c1ccc(OCCCCCOc2ccc(C(=N)N)cc2)cc1 [pentamidine, Pentamidine]",tubular toxicity,[7],dose-related and reversible
"CC(=N)S [thioacetamide, Thioacetamide]","serum total bilirubin, aspartate aminotransferase, alanine aminotransferase, BUN, creatinine and TNFα",[8],elevated
